Assay results: ChEMBL document CHEMBL5365543, “Benzamidine Conjugation Converts Expelled Potential Active Agents into Antifungals against Drug-Resistant Fungi” (J Med Chem, 2023)
In brackets after ≈: the same amount, converted by molar mass. Each block holds one molecule with its values, some of them ahead of it. Activity calls are given as the source filed them. The rule behind the calls is not given here.

Experiments:
Candida albicans [1] = experiment: Antifungal activity against wild-type Candida albicans SC5314 assessed as inhibition of fungal growth measured after 24 hrs by CLSI based microtiter plate analysis; type: functional
Candida albicans [2] = experiment: Antifungal activity against clinical isolate Candida albicans YEM13 overexpressing efflux pump MdrL assessed as inhibition of fungal growth measured after 24 hrs by CLSI based microtiter plate analysis; type: functional
Candida albicans [3] = experiment: Antifungal activity against clinical isolate Candida albicans YEM15 overexpressing efflux pump CdrL and Cdr2 assessed as inhibition of fungal growth measured after 24 hrs by CLSI based microtiter plate analysis; type: functional
Candida albicans [4] = experiment: Antifungal activity against clinical isolate Candida albicans SCUPC2R14MPG2A harbouring UPC2 mutation overexpressing […] Erg11 assessed as inhibition of fungal growth measured after 24 hrs by CLSI based microtiter plate analysis; type: functional
Candida albicans [5] = experiment: Antifungal activity against clinical isolate Candida albicans SCMRRIR34MPG2A harbouring MRR1 mutation overexpressing efflux pump MdrL assessed as inhibition of fungal growth measured after 24 hrs by CLSI based microtiter plate analysis; type: functional
Candida albicans [6] = experiment: Antifungal activity against clinical isolate fluconazole-resistant Candida albicans DSY296 harbouring TAC1 mutation overexpressing efflux pump CdrL and Cdr2 assessed as inhibition of fungal growth measured after 24 hrs by CLSI based microtiter plate analysis; type: functional
Candida albicans [7] = experiment: Antifungal activity against clinical isolate fluconazole-resistant Candida albicans G5 harbouring MRR1 mutation overexpressing MdrL assessed as inhibition of fungal growth measured after 24 hrs by CLSI based microtiter plate analysis; type: functional
Candida albicans [8] = experiment: Antifungal activity against clinical isolate fluconazole-resistant Candida albicans Gu5 harbouring TAC1 mutation overexpressing efflux pump CdrL and Cdr2 assessed as inhibition of fungal growth measured after 24 hrs by CLSI based microtiter plate analysis; type: functional
Candida albicans [9] = experiment: Antifungal activity against clinical isolate fluconazole-resistant Candida albicans CA632 assessed as inhibition of fungal growth measured after 24 hrs by CLSI based microtiter plate analysis; type: functional
[Candida] auris [10] = Antifungal activity against clinical isolate fluconazole-resistant Candida auris CBS12774 assessed as inhibition of fungal growth measured after 24 hrs by CLSI based microtiter plate analysis; type: functional; details: Candidozyma auris
[Candida] auris [11] = Antifungal activity against clinical isolate fluconazole-resistant Candida auris CBS12776 assessed as inhibition of fungal growth measured after 24 hrs by CLSI based microtiter plate analysis; type: functional; details: Candidozyma auris
Nakaseomyces glabratus = experiment: Antifungal activity against clinical isolate fluconazole-resistant Candida glabrata CG2 assessed as inhibition of fungal growth measured after 24 hrs by CLSI based microtiter plate analysis; type: functional
Cryptococcus neoformans = experiment: Antifungal activity against clinical isolate fluconazole-resistant Cryptococcus neoformans H99 assessed as inhibition of fungal growth measured after 24 hrs by CLSI based microtiter plate analysis; type: functional
Candida tropicalis = experiment: Antifungal activity against clinical isolate fluconazole-resistant Candida tropicalis CT10 assessed as inhibition of fungal growth measured after 24 hrs by CLSI based microtiter plate analysis; type: functional
[12] = Drug accumulation in wild-type Candida albicans SC5314 at 50 microg/ml incubated for 3 hrs by HPLC analysis; type: ADME; details: dose 50 µg/ml
Candida albicans [13] = experiment: microbe, parasite or virus in culture; type: functional; details: DSY654, time 24 hrs
[14] = Candida albicans, SC5314, 24 h, read-out: MIC80
[15] = Candida albicans, SC5314, read-out: MIC80

SMILES: CCOC(=O)C1=C(COCCNCCCOc2ccc(C(=N)N)cc2)NC(C)=C(C(=O)OC)C1c1ccccc1Cl (centres undefined)
MIC (Candida albicans [1]): inactive | MIC80 (Candida albicans [1]; [14]): 4 µg/mL (≈ 6.84 µM) | MIC80 (Candida albicans [2]): 4 µg/mL (≈ 6.84 µM) | MIC80 (Candida albicans [3]): 4 µg/mL (≈ 6.84 µM) | MIC80 (Candida albicans [4]): 4 µg/mL (≈ 6.84 µM) | MIC80 (Candida albicans [5]): 8 µg/mL (≈ 13.7 µM) | MIC80 (Candida albicans [6]): 8 µg/mL (≈ 13.7 µM) | MIC80 (Candida albicans [7]): 4 µg/mL (≈ 6.84 µM) | MIC80 (Candida albicans [8]): 4 µg/mL (≈ 6.84 µM) | MIC80 (Candida albicans [9]): 4 µg/mL (≈ 6.84 µM) | MIC80 ([Candida] auris [10]): 8 µg/mL (≈ 13.7 µM) | MIC80 ([Candida] auris [11]): 8 µg/mL (≈ 13.7 µM) | MIC80 (Nakaseomyces glabratus): 8 µg/mL (≈ 13.7 µM) | MIC80 (Cryptococcus neoformans): 8 µg/mL (≈ 13.7 µM) | MIC80 (Candida tropicalis): 4 µg/mL (≈ 6.84 µM) | Drug uptake [12]: Active

MIC80 (Candida albicans [13]): > 256 µg/mL | MIC80 (Candida albicans [1]; [15]): > 256 µg/mL
SMILES: CCc1n(CCCI)c2ccccc2[n+]1C.[I-]

SMILES: CCOC(=O)C1=C(COCCN)NC(C)=C(C(=O)OC)C1c1ccccc1Cl (centres undefined) [AMLODIPINE]
MIC (Candida albicans [13]): 32 µg/mL (≈ 78.3 µM) | Drug uptake ([12]; BLD = below limit of detection): Bld

MIC (Candida albicans [13]): 4 µg/mL (≈ 12.9 µM) | Drug uptake ([12]; BLD = below limit of detection): Bld
SMILES: C#C[C@]1(O)CC[C@H]2[C@@H]3CCC4=CCCC[C@@H]4[C@H]3C(=C)C[C@@]21CC [DESOGESTREL]

MIC80 (Candida albicans [13]): > 256 µg/mL | MIC80 (Candida albicans [1]; [15]): > 256 µg/mL
SMILES: BrCCC[P+](c1ccccc1)(c1ccccc1)c1ccccc1.[Br-]

SMILES: CC/C(=C(/CC)c1ccc(OCCCOc2ccc(C(=N)N)cc2)cc1)c1ccc(O)cc1
MIC (Candida albicans [1]): inactive | MIC80 (Candida albicans [1]; [14]): 4 µg/mL (≈ 9 µM) | MIC80 (Candida albicans [2]): 4 µg/mL (≈ 9 µM) | MIC80 (Candida albicans [3]): 4 µg/mL (≈ 9 µM) | MIC80 (Candida albicans [4]): 4 µg/mL (≈ 9 µM) | MIC80 (Candida albicans [5]): 4 µg/mL (≈ 9 µM) | MIC80 (Candida albicans [6]): 4 µg/mL (≈ 9 µM) | MIC80 (Candida albicans [7]): 4 µg/mL (≈ 9 µM) | MIC80 (Candida albicans [8]): 4 µg/mL (≈ 9 µM) | MIC80 (Candida albicans [9]): 4 µg/mL (≈ 9 µM) | MIC80 ([Candida] auris [10]): 4 µg/mL (≈ 9 µM) | MIC80 ([Candida] auris [11]): 4 µg/mL (≈ 9 µM) | MIC80 (Nakaseomyces glabratus): 8 µg/mL (≈ 18 µM) | MIC80 (Cryptococcus neoformans): 8 µg/mL (≈ 18 µM) | MIC80 (Candida tropicalis): 4 µg/mL (≈ 9 µM) | Drug uptake [12]: Active

MIC (Candida albicans [13]): 4 µg/mL (≈ 13.4 µM) | Drug uptake ([12]; BLD = below limit of detection): Bld
SMILES: Cc1ccc(Sc2ccccc2N2CCNCC2)c(C)c1 [VORTIOXETINE]

MIC (Candida albicans [1]; Candida albicans, SC5314): 32 µg/mL (≈ 54.2 µM) | Drug uptake ([12]; BLD = below limit of detection): Bld
SMILES: C=C1C(=O)[C@@]2(C)CC[C@@H]3[C@@]1(CC[C@H]1[C@@]3(C)CCC[C@@]1(C)C(=O)OCCCCCCCCCOc1ccc(C(=N)N)cc1)C2

SMILES: C[C@@H]1[C@H](O)[C@@H](C)/C=C/C=C/C=C/C=C/C=C/C=C/C=C/[C@H](O[C@@H]2O[C@H](C)[C@@H](O)[C@H](N)[C@@H]2O)C[C@@H]2O[C@](O)(C[C@@H](O)C[C@@H](O)[C@H](O)CC[C@@H](O)C[C@@H](O)CC(=O)O[C@H]1C)C[C@H](O)[C@H]2C(=O)O [AMPHOTERICIN B]
MIC80 (Candida albicans [1]; [14]): 0.5 µg/mL (≈ 0.541 µM) | MIC80 (Candida albicans [2]): 0.5 µg/mL (≈ 0.541 µM) | MIC80 (Candida albicans [3]): 2 µg/mL (≈ 2.16 µM) | MIC80 (Candida albicans [4]): 0.5 µg/mL (≈ 0.541 µM) | MIC80 (Candida albicans [6]): 0.5 µg/mL (≈ 0.541 µM) | MIC80 (Candida albicans [7]): 0.5 µg/mL (≈ 0.541 µM) | MIC80 (Candida albicans [8]): 1 µg/mL (≈ 1.08 µM) | MIC80 (Candida albicans [9]): 0.5 µg/mL (≈ 0.541 µM) | MIC80 ([Candida] auris [10]): 1 µg/mL (≈ 1.08 µM) | MIC80 ([Candida] auris [11]): 1 µg/mL (≈ 1.08 µM) | MIC80 (Nakaseomyces glabratus): 0.5 µg/mL (≈ 0.541 µM) | MIC80 (Cryptococcus neoformans): 1 µg/mL (≈ 1.08 µM) | MIC80 (Candida tropicalis): 2 µg/mL (≈ 2.16 µM)

SMILES: Clc1ccc2c(c1)CCc1cccnc1C2=C1CCNCC1 [DESLORATADINE]
Drug uptake ([12]; BLD = below limit of detection): Bld

MIC80 (Candida albicans [1]; [15]): 64 µg/mL (≈ 103 µM) | Drug uptake [12]: Active
SMILES: C[C@@H]1CC[C@@]2(OC1)O[C@H]1C[C@H]3[C@@H]4CC=C5C[C@@H](OC(=O)CCCOc6ccc(C(=N)N)cc6)CC[C@]5(C)[C@H]4CC[C@]3(C)[C@H]1[C@@H]2C

MIC80 (Candida albicans [13]): > 256 µg/mL | MIC80 (Candida albicans [1]; [15]): > 256 µg/mL
SMILES: N=C(N)c1ccc(OCCCBr)cc1

MIC (Candida albicans [13]): 4 µg/mL (≈ 14.9 µM)
SMILES: CC/C(=C(/CC)c1ccc(O)cc1)c1ccc(O)cc1 [DIETHYLSTILBESTROL]

SMILES: C=C1C[C@@]2(CC)[C@@H](CC[C@@]2(O)c2cn(CCCOc3ccc(C(=N)N)cc3)nn2)[C@@H]2CCC3=CCCC[C@@H]3[C@@H]12
MIC (Candida albicans [1]): inactive | MIC80 (Candida albicans [1]; [14]): 32 µg/mL (≈ 60.4 µM) | MIC80 (Candida albicans [2]): 32 µg/mL (≈ 60.4 µM) | MIC80 (Candida albicans [3]): 64 µg/mL (≈ 121 µM) | MIC80 (Candida albicans [4]): 64 µg/mL (≈ 121 µM) | MIC80 (Candida albicans [5]): 64 µg/mL (≈ 121 µM) | MIC80 (Candida albicans [6]): 64 µg/mL (≈ 121 µM) | MIC80 (Candida albicans [7]): 64 µg/mL (≈ 121 µM) | MIC80 (Candida albicans [8]): 64 µg/mL (≈ 121 µM) | MIC80 (Candida albicans [9]): 32 µg/mL (≈ 60.4 µM) | MIC80 ([Candida] auris [10]): 64 µg/mL (≈ 121 µM) | MIC80 ([Candida] auris [11]): 64 µg/mL (≈ 121 µM) | MIC80 (Nakaseomyces glabratus): 64 µg/mL (≈ 121 µM) | MIC80 (Cryptococcus neoformans): 64 µg/mL (≈ 121 µM) | MIC80 (Candida tropicalis): 64 µg/mL (≈ 121 µM) | Drug uptake [12]: Active

MIC80 (Candida albicans [1]; [15]): 32 µg/mL (≈ 68.9 µM) | Drug uptake [12]: Active
SMILES: N=C(N)c1ccc(OCCCN2CCN(C(c3ccc(F)cc3)c3ccc(F)cc3)CC2)cc1

MIC (Candida albicans [1]; Candida albicans, SC5314): > 256 µg/mL | Drug uptake ([12]; BLD = below limit of detection): Bld
SMILES: Fc1ccc(C(c2ccc(F)cc2)N2CCNCC2)cc1

MIC80 (Candida albicans [1]; [15]): 16 µg/mL (≈ 23.1 µM) | Drug uptake [12]: Active
SMILES: CC(=O)O[C@H]1C[C@@]2(C)[C@@H](C[C@@H](O)[C@H]3[C@@]4(C)CC[C@@H](O)[C@@H](C)[C@@H]4CC[C@@]32C)/C1=C(\CCC=C(C)C)C(=O)OCCCOc1ccc(C(=N)N)cc1

MIC (Candida albicans [1]; Candida albicans, SC5314): > 256 µg/mL | Drug uptake ([12]; BLD = below limit of detection): Bld
SMILES: C[C@@H]1CC[C@@]2(OC1)O[C@H]1C[C@H]3[C@@H]4CC=C5C[C@@H](O)CC[C@]5(C)[C@H]4CC[C@]3(C)[C@H]1[C@@H]2C [DISOGENIN]

MIC (Candida albicans [13]): 8 µg/mL (≈ 19.8 µM) | MIC (Candida albicans [1]): inactive
SMILES: Fc1ccc(C(c2ccc(F)cc2)N2CCN(C/C=C/c3ccccc3)CC2)cc1 [FLUNARIZINE]
